The values below are quoted from earlier work in patent publication US6365601B1, “Process for extraction of piperine from piper species” (Council of Scientific and Industrial Research, priority 1999, dated 2002).

The conditions of the series: Reen and Rashmet, J. Ethnopharmacol., 1997.

With `O=C(/C=C/C=C/c1ccc2c(c1)OCO2)N1CCCCC1` [Piperine], the “chemoprotective effect against procarcinogens” value is given as “potent chemoprotective effect”.
